Read-outs that look alike come from different tables or passages of the source. One block for each compound: values may come before it. Residues, ends and D or L forms follow the SMILES beside them. No end group written: not given here.
Tests used:
xanthine oxidase (XO) = settings: cited from earlier work; for IC50: literature value, ref He et al. [2019], Mao et al. [2023], Xu, Liu, et al. [2024], read-out: IC50 (XO inhibition)
[1] = system: rat model of hyperuricemia; settings: ref Qi et al. [2023], [2024]; cited from earlier work
From the text: As study limitations, the mechanism for alleviating hyperuricemia is known to involve not only XO activity inhibition but also other factors, such as UA excretion promotion and UA reabsorption inhibition (Cicero et al. [2021]).

XO from bovine milk [2] = biological target: T1, XO from bovine milk (Bos taurus, UniProt P80457); test: XO inhibitory activity by absorptiometry (absorbance at 290 nm, microplate reader); type: biochemical; settings: for Suppression of the absorbance increase / enzymatic reaction compared with control (relative absorbance): 290 nm every 5 min for 30 min, Figure 2; for Concentration dependence of XO inhibitory activity / Concentration with significant XO inhibition: absorptiometry; for Concentration with significant XO inhibition: vs. control, p < 0.01, one-way ANOVA, Tukey-Kramer
T1 construct: XO from bovine milk and xanthine were purchased from Sigma‐Aldrich Corp. (MO, USA); purchased Sigma‐Aldrich Corp. (MO, USA); host or cells: bovine milk (natural source)
T1 sequence (P80457 whole entry): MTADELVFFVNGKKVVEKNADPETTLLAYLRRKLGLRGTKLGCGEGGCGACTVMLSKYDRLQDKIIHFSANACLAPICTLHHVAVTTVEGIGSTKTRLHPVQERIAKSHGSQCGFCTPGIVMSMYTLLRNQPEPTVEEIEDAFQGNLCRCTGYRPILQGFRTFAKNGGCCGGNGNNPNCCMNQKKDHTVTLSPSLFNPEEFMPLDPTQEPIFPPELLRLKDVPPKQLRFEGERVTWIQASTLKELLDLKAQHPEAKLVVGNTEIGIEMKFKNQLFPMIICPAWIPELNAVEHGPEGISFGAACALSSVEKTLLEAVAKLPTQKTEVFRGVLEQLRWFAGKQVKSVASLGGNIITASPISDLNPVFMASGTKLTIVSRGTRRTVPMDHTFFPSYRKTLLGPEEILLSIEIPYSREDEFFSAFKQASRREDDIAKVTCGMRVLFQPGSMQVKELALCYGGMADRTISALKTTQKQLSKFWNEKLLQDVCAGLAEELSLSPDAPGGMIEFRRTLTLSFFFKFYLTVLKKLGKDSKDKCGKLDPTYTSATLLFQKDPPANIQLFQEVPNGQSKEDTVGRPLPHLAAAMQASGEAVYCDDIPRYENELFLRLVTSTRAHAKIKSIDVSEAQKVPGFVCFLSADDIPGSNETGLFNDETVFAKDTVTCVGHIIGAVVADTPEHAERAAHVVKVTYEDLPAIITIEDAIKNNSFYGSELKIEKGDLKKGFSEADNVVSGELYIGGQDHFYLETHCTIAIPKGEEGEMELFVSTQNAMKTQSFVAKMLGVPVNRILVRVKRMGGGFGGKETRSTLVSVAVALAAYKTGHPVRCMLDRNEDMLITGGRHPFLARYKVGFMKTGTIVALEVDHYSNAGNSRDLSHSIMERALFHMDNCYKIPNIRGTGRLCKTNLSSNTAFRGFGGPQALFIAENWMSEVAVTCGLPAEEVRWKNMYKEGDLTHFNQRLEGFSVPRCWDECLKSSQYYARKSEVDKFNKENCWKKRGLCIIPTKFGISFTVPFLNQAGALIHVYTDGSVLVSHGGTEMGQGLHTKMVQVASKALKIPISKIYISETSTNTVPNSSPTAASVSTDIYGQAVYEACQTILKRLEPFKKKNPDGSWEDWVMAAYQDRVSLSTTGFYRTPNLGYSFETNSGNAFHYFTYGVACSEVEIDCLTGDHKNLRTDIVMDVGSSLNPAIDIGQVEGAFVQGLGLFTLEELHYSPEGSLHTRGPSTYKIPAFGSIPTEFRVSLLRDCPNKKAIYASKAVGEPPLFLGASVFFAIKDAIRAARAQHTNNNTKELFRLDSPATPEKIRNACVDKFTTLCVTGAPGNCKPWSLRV
Method: (§1) Tryptophan and leucine were obtained from Kanto Chemical Co. Ltd. (Tokyo, Japan). The evaluation samples such as peptides and amino acids, and allopurinol (FUJIFILM Wako Pure Chemical Corp., Tokyo, Japan) as a positive control for the evaluation method, were suspended in 0.1 M phosphate buffer pH 7.2 (FUJIFILM Wako Pure Chemical Corp., Tokyo, Japan) containing 0.1 M sodium chloride. The samples were obtained for the assay after sonication for 10 min. XO from bovine milk and xanthine were purchased from Sigma‐Aldrich Corp. (MO, USA). […] The xanthine solution was prepared by diluting it with buffer at a ratio of 1:10.
2.2 Enzymatic Reaction and Monitoring of Absorbance Using a Microplate Reader
(§2) Briefly, the samples (e.g., LDQW) or allopurinol were mixed with the XO solution (final concentration: 25 U/L). A mixture added to the buffer instead of the sample was analyzed as a control. […] The sample, XO solution, and xanthine solution were reacted in a 2:1:1 ratio. The assay was performed in triplicate. The XO inhibitory activity was calculated using the following equation: XOinhibitory activity%=1−AbS30min−AbS0min/AbC30min−AbC0min×100
AbS30min : Absorbance of the sample at 30 min.
AbS0min : Absorbance of the sample at 0 min.
AbC30min : Absorbance of the control at 30 min.
AbC0min : Absorbance of the control at 0 min.
(§3) All experiments were performed in triplicate, with data indicated as mean ± standard deviation (SD). […] One‐way analysis of variance (ANOVA) was used for parametric analyses, followed by the Tukey–Kramer test. p values of < 0.05 were considered statistically significant.

XO from bovine milk [3] = biological target: T1, XO from bovine milk; test: XO inhibitory activity by LC-MS/MS quantification of uric acid; type: biochemical; settings: for XO inhibitory activity (inhibition ratio): 20 mM, UA by LC-MS/MS (PRM m/z 169.03/70.04) after 30 min, XO 25 U/L, xanthine 0.42 mM, 0.1 M phosphate buffer pH 7.2 containing 0.1 M sodium chloride, mean ± SD; for XO inhibitory activity (inhibition ratio) / Significance of XO inhibition at any concentration / Concentration with significant XO inhibition: n = 3; for Significance of XO inhibition at any concentration / Concentration with significant XO inhibition: one-way ANOVA, Tukey-Kramer; for Significance of XO inhibition at any concentration: tryptophan Figure 5, leucine Figure 6; for Concentration dependence of XO inhibition: Figure 5 or Figure 6; for Concentration with significant XO inhibition: vs. control, Figure 5
Method: as §1, §2
2.3 Determination of XO Inhibitory Activity Using LC–MS/MS
To halt the enzymatic reaction, an equal volume of 1 M HCl, purchased from Kanto Chemical Co. Ltd. (Tokyo, Japan), was promptly added to the mixture after the absorbance was monitored for 30 min (Figure 1A). The mixture was then diluted 50‐fold with water containing 0.2% (v/v) formic acid (FA), which was purchased from Kanto Chemical Co. Ltd. (Tokyo, Japan), to prepare analytical samples for LC–MS/MS. UA in the analytical samples was measured using a Vanquish Ultra‐High‐Performance LC system coupled with a Vanquish variable wavelength detector VF‐D40 and a Q Exactive Focus (Thermo Fisher Scientific Inc., MA, USA). UA in the analytical samples was separated using an XBridge Peptide BEH C18 Column (2.1 mm i.d. × 250 mm, 3.5 μm, Waters Inc., MA, USA).
UA separation was achieved using 0.1% (v/v) FA in water (solvent A) and 0.1% FA in methanol (solvent B, Kanto Chemical Co. Ltd., Tokyo, Japan) with the following gradient over 22 min: 2% B for 5 min, increased from 2% to 10% B over 3 min, from 10% to 80% B over 2 min, held at 80% B for 2 min, decreased from 80% to 2% B over 0.1 min and held at 2% B for 10 min. The column temperature and flow rate were maintained at 40°C and 0.2 mL/min, respectively. During separation, the absorbance was monitored at 290 nm.
MS detection was performed in positive ion mode. […] The peak area detected at a retention time of 4.3 min was analyzed using Thermo Scientific Xcalibur. UA was quantified using the absolute calibration curve method, which was constructed from the peak areas of UA at various concentrations. XO inhibitory activity was calculated as [1 − UAs/UAc] × 100%, where UAs and UAc represent the amount of UA in the samples and control, respectively.
as §3

[4] = system: rat model of hyperuricemia; settings: orally administered, ref He et al. [2024], Qi et al. [2022a]; cited from earlier work
From the text: There have been numerous reports on bioactive peptides with XO inhibitory activity.

[5] = 20 mM, absorbance at 290 nm, 0-30 min, XO 25 U/L, xanthine 0.42 mM, 0.1 M phosphate buffer pH 7.2 containing 0.1 M sodium chloride, mean ± SD, n = 3, Figure 3
[6] = 1-20 mM tested, n = 3, Figure 3
[7] = experiment of Figure 6 (DQW fragment)

Compound: Gly‐Leu
IC50 (xanthine oxidase (XO)): 10.2 mM

Compound: Ala‐Met
IC50 (xanthine oxidase (XO)): 40.5 mM

Compound: Leu‐Leu‐Trp [LLW]
XO inhibition reported earlier (xanthine oxidase (XO); ref Qi et al. [2023], [2024]): known for their XO inhibitory activities
Expression of genes related to UA synthesis in the liver [1]: reduce the expression of genes related to UA synthesis in the liver
Gene expression for UA excretion in the kidneys [1]: enhance gene expression for UA excretion in the kidneys

Compound: Pro‐Glu‐Trp [PEW, peptide derived from milk proteins]
XO inhibition reported earlier (xanthine oxidase (XO); ref Qi et al. [2022a], [2022b]): inhibit XO
XO inhibition reported earlier (xanthine oxidase (XO); ref Qi et al. [2023], [2024]): known for their XO inhibitory activities
Expression of genes related to UA synthesis in the liver [1]: reduce the expression of genes related to UA synthesis in the liver
Gene expression for UA excretion in the kidneys [1]: enhance gene expression for UA excretion in the kidneys

Compound: Ala‐Leu
IC50 (xanthine oxidase (XO)): 34.5 mM

Compound: Pro‐Met
IC50 (xanthine oxidase (XO)): 23.8 mM

inhibition at 20000 µM (XO from bovine milk [2]; [5]): 95.2%
Concentration with significant XO inhibition (XO from bovine milk [2]; [6]): ≥ 1 mM
XO inhibitory activity (inhibition ratio) (XO from bovine milk [3]; experiment of Figure 5): 4.4% ± 3.7
Compound: N[C@@H](Cc1c[nH]c2ccccc12)C(=O)O [tryptophan]
Suppression of the absorbance increase / enzymatic reaction compared with control (relative absorbance) (XO from bovine milk [2]; n = 3): the enzymatic reaction by XO was suppressed compared with the control
Concentration dependence of XO inhibitory activity (XO from bovine milk [2]; Figure 3): increased with rising concentrations in a concentration‐dependent manner
Significance of XO inhibition at any concentration (XO from bovine milk [3]; LC-MS/MS): did not exhibit significant XO inhibition at any concentration

Compound: CC(C)C[C@H](N)C(=O)O [leucine]
Significance of XO inhibition at any concentration (XO from bovine milk [3]; LC-MS/MS): no significant XO inhibition was observed

XO inhibitory activity (inhibition ratio) (XO from bovine milk [3]; [7]): 48.4% ± 8.5
XO inhibitory activity in comparison with another peptide (XO from bovine milk [3]; LC-MS/MS): comparable to that of LDQW
Compound: Asp‐Gln‐Trp [DQW]
Concentration dependence of XO inhibition (XO from bovine milk [3]; LC-MS/MS): significantly inhibited XO activity in a concentration‐dependent manner

Compound: Oc1ncnc2[nH]ncc12 [allopurinol]
Suppression of the absorbance increase / enzymatic reaction compared with control (relative absorbance) (XO from bovine milk [2]; n = 3): suppressed the increase in absorbance in a concentration‐dependent manner
Concentration dependence of XO inhibitory activity (XO from bovine milk [2]; Figure 3): increased with rising concentrations in a concentration‐dependent manner
Concentration with significant XO inhibition (XO from bovine milk [2]; allopurinol positive control, 1-50 μM tested, n = 3, Figure 3): ≥ 0.001 mM
XO inhibition reported earlier (xanthine oxidase (XO); ref Klein et al. [1996]): reported to have XO inhibitory activity
Concentration dependence of XO inhibition (XO from bovine milk [3]; LC-MS/MS): significantly inhibited XO activity in a concentration‐dependent manner
Concentration with significant XO inhibition (XO from bovine milk [3]; allopurinol positive control, LC-MS/MS): ≥ 1 µM

XO inhibitory activity (XO from bovine milk [2]; [5]): 25.2% ± 1.9
Concentration with significant XO inhibition (XO from bovine milk [2]; [6]): 20 mM
XO inhibitory activity (inhibition ratio) (XO from bovine milk [3]; experiment of Figure 5): 45.0% ± 1.0
Concentration with significant XO inhibition (XO from bovine milk [3]; LC-MS/MS): ≥ 5000 µM
Compound: Ala‐Leu‐Pro‐Met [ALPM, milk protein-derived peptide used for comparison]
Suppression of the absorbance increase / enzymatic reaction compared with control (relative absorbance) (XO from bovine milk [2]; n = 3): suppressed this increase compared with the control
XO inhibition reported earlier (xanthine oxidase (XO); ref Qi et al. [2022a], [2022b]): inhibit XO
Renal dysfunction [4]: improve renal dysfunction
Serum uric acid (SUA) levels [4]: reduce SUA levels
Concentration dependence of XO inhibition (XO from bovine milk [3]; LC-MS/MS): increase in the inhibition ratio in a concentration‐dependent manner

Compound: Phe‐His
IC50 (xanthine oxidase (XO)): 25.7 mM

Compound: YNITGW
IC50 (xanthine oxidase (XO)): 9.8 mM

inhibition at 20000 µM (XO from bovine milk [2]; [5]): 96.4%
XO inhibitory activity (inhibition ratio) (XO from bovine milk [3]; experiment of Figure 5): 58.0% ± 2.8
XO inhibitory activity (inhibition ratio) (XO from bovine milk [3]; [7]): 57.9% ± 3.2
Compound: CC(C)C[C@H](N)C(=O)N[C@@H](CC(=O)O)C(=O)N[C@@H](CCC(N)=O)C(=O)N[C@@H](Cc1c[nH]c2ccccc12)C(=O)O [LDQW, Leu‐Asp‐Gln‐Trp] (H-LDQW-OH)
